# Experimental data taken from patent US8058264B2, “Pharmaceutical compositions comprising CB1 cannabinoid receptor antagonists and potassium channel openers for the treatment of obesity and related conditions” (Abbott Products GmbH, priority 2004, dated 2011).
# Assays:
# fatty Zucker rat = experiment: Acute oral glucose tolerance test (OGTT) in the fatty Zucker rat; type: in vivo; conditions: acute administration (over a period of 1 day)
# Kir6.2/SUR1 KATP channel = experiment: Opening of the Kir6.2/SUR1 KATP channel; type: biochemical
# obese patients = conditions: chronic treatment, e.g. over a period of 1 year; cited from earlier work
compound,measurement,setting,value
"Cc1c(C(=O)NN2CCCCC2)nn(-c2ccc(Cl)cc2Cl)c1-c1ccc(Cl)cc1 [5-(4-chlorophenyl)-1-(2,4-dichlorophenyl)-4-methyl-N-piperidin-1-yl-1H-pyrazole-3-carboxamide]",glucose plasma levels in OGTT,fatty Zucker rat,strong increase in glucose plasma levels
same,insulin release in OGTT,fatty Zucker rat,significantly reduced inhibition of insulin release
same,opener activity at the Kir6.2/SUR1 KATP channel,Kir6.2/SUR1 KATP channel,potent opener
same,glucose tolerance and insulin resistance in obese patients,obese patients,improve glucose tolerance and insulin resistance
